# Test results taken from patent US20250270200A1, “CTPS1 INHIBITORS AND USES THEREOF” (Nimbus Clotho, Inc., priority 2022, published 2025).
# Target: T1, human CTPS1 (Homo sapiens, UniProt P17812)
# T1 sequence (P17812 1-591): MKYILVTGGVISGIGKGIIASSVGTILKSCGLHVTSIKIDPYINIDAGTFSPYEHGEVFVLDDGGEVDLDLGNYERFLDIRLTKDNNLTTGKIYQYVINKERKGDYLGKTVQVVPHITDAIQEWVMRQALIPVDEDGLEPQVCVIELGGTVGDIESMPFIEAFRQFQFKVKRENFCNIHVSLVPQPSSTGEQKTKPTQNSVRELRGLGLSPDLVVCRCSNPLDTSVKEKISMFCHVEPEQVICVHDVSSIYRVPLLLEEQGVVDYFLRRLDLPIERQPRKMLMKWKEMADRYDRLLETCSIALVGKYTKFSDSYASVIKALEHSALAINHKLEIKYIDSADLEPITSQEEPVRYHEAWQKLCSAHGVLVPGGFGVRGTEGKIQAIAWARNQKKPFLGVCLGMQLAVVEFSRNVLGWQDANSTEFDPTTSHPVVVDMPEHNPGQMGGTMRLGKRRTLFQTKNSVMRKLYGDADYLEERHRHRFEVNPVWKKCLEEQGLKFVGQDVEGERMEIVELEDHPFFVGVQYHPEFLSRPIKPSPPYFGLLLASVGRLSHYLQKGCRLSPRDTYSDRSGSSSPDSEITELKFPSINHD
# Test: ADP-Glo assay, human CTPS1 enzyme inhibition
# Type: biochemical
# Details: wild-type human CTPS1 25 nM; ATP 120 μM, UTP 160 μM, GTP 60 μM, L-glutamine 100 μM; 25 degrees C.; read-out: ADP-Glo_WT_hCTPS1—25 nM_IC50 (IC50)
# Procedure, shortened: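 ADP-Glo luminescence quantified ADP produced by 25 nM purified human CTPS1 (full length, FLAG-His tagged) at 25° C within the linear phase. Final substrates: ATP 120 μM, UTP 160 μM, GTP 60 μM, L-glutamine 100 μM; 1% DMSO; pH 7.4 HEPES buffer with Mg2+, KCl, DTT. Compound pre-incubated with enzyme 10 min, then with ATP/UTP 10 min.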
row,IC50 [nM],Compound
1,5 to 25,"CCOc1cncc(-c2cnc(C(=O)N[C@H](c3nccc(NS(=O)(=O)C4CC4)c3F)[C@H]3CCOC3)s2)n1 (single isomer, unassigned) [II-17]"
2,5 to 25,"CCOc1cncc(-c2cnc(C(=O)N[C@@H](COC)c3cc(NS(=O)(=O)C4CC4)ncn3)s2)n1 (single isomer, unassigned) [II-7]"
3,25 to 50,"COC[C@@H](NC(=O)c1ncc(-c2cnn3ccc(Cl)cc23)s1)c1nccc(NS(=O)(=O)C2CC2)n1 (single isomer, unassigned) [II-10]"
4,5 to 25,"O=C(N[C@@H](c1nccc(NS(=O)(=O)C2CC2)c1F)[C@@H]1CCOC1)c1ncc(-c2cnn3ccc(Cl)cc23)s1 (single isomer, unassigned) [II-4]"

# Same assay, conditions: wild-type human CTPS1, 25 nM enzyme; ADP-Glo; read-out: ADP-Glo_WT_hCTPS1—25 nM_IC50 (IC50)
row,Compound,IC50 [nM]
1,"CCOc1cncc(-c2cnc(C(=O)N[C@@H](COC)c3cccc(NS(=O)(=O)C(F)F)c3)s2)n1 [I-293, (R)-N-(1-(3-((difluoromethyl)sulfonamido)phenyl)-2-methoxyethyl)-5-(6-ethoxypyrazin-2-yl)thiazole-2-carboxamide]",5 to 25
2,"CCOc1cncc(-c2cnc(C(=O)N[C@H](c3cccc(NS(=O)(=O)C(F)F)c3)[C@H](C)O)s2)n1 [I-289, N-((1R,2S)-1-(3-((difluoromethyl)sulfonamido)phenyl)-2-hydroxypropyl)-5-(6-ethoxypyrazin-2-yl)thiazole-2-carboxamide]",5 to 25
3,"C[C@H](CN1CCCCC1)[C@H](NC(=O)c1ncc(-c2cnn3ccc(Cl)cc23)s1)c1cc(NS(=O)(=O)C2CC2)ccn1 [I-57, 5-(5-chloropyrazolo[1,5-a]pyridin-3-yl)-N-((1S,2R)-1-(4-(cyclopropanesulfonamido)pyridin-2-yl)-2-methyl-3-(piperidin-1-yl)propyl)thiazole-2-carboxamide]",5 to 25
4,"CCOc1cncc(-c2cnc(C(=O)N[C@@H](c3cc(NS(=O)(=O)C4CC4)ccn3)[C@@H](C)COC)s2)n1 [I-235, N-((1R,2R)-1-(4-(cyclopropanesulfonamido)pyridin-2-yl)-3-methoxy-2-methylpropyl)-5-(6-ethoxypyrazin-2-yl)thiazole-2-carboxamide]",5 to 25
5,"CCOc1cncc(-c2cnc(C(=O)N[C@H](CN3[C@@H]4CC[C@H]3COC4)c3cc(NS(=O)(=O)C4CC4)ccn3)s2)n1 (single isomer, unassigned) [I-37]",5 to 25
6,"CCOc1cncc(-c2ccc(C(=O)N[C@H](c3cc(NS(=O)(=O)C4CC4)ccn3)[C@H]3CCCO3)nc2)n1 [I-67, N-((R)-(4-(cyclopropanesulfonamido)pyridin-2-yl)((R)-tetrahydrofuran-2-yl)methyl)-5-(6-ethoxypyrazin-2-yl)picolinamide]",25 to 50
7,"CCOc1cncc(-c2cnc(C(=O)N[C@H](COC)c3nccc(NS(=O)(=O)C4CC4)n3)s2)n1 [I-21, (S)-N-(1-(4-(cyclopropanesulfonamido)pyrimidin-2-yl)-2-methoxyethyl)-5-(6-ethoxypyrazin-2-yl)thiazole-2-carboxamide]",5 to 25
8,"CCOc1cncc(-c2cnc(C(=O)N[C@H](CCN3CCCC4(CC4)C3)c3cc(NS(=O)(=O)C4CC4)ccn3)s2)n1 (single isomer, unassigned) [I-17]",≤ 5
9,"CCOc1cncc(-c2cnc(C(=O)N[C@H](CO[C@@H]3CCOC3)c3cc(NS(=O)(=O)C4CC4)ccn3)s2)n1 [I-240, N-((S)-1-(4-(cyclopropanesulfonamido)pyridin-2-yl)-2-(((R)-tetrahydrofuran-3-yl)oxy)ethyl)-5-(6-ethoxypyrazin-2-yl)thiazole-2-carboxamide]",5 to 25
10,"CCOc1cncc(-c2cnc(C(=O)N[C@@H](c3cc(NS(=O)(=O)C4CC4)ccn3)[C@H]3CC(=O)N(C)C3)s2)n1 [I-122, N-((R)-(4-(cyclopropanesulfonamido)pyridin-2-yl)((S)-1-methyl-5-oxopyrrolidin-3-yl)methyl)-5-(6-ethoxypyrazin-2-yl)thiazole-2-carboxamide]",5 to 25
11,"CCOc1cncc(-c2cnc(C(=O)N[C@H](CN3C[C@H]4CC[C@@H]3CO4)c3cc(NS(=O)(=O)C4CC4)ccn3)s2)n1 [I-124, N-((R)-2-((1R,4R)-2-oxa-5-azabicyclo[2.2.2]octan-5-yl)-1-(4-(cyclopropanesulfonamido)pyridin-2-yl)ethyl)-5-(6-ethoxypyrazin-2-yl)thiazole-2-carboxamide]",25 to 50
12,"CCOc1cncc(-c2ccc(C(=O)N[C@H](CCN3CCCCC3)c3cc(NS(=O)(=O)C4CC4)ccn3)c(F)c2F)n1 (single isomer, unassigned) [I-7]",5 to 25

# The next lines start with the values.
row,IC50 [nM],Compound
1,≤ 5,"CCOc1cncc(-c2cnc(C(=O)N[C@@H](c3cc(NS(=O)(=O)C4CC4)ccn3)[C@@H]3COCCO3)s2)n1 [I-76, N-((S)-(4-(cyclopropanesulfonamido)pyridin-2-yl)((R)-1,4-dioxan-2-yl)methyl)-5-(6-ethoxypyrazin-2-yl)thiazole-2-carboxamide]"
2,5 to 25,"C[C@@H](O)[C@@H](NC(=O)c1ncc(-c2cnn3ccc(Cl)cc23)s1)c1cc(NS(=O)(=O)C2CC2)ccn1 [I-274, 5-(5-chloropyrazolo[1,5-a]pyridin-3-yl)-N-((1S,2R)-1-(4-(cyclopropanesulfonamido)pyridin-2-yl)-2-hydroxypropyl)thiazole-2-carboxamide]"
3,5 to 25,"C[C@@H](CO)[C@@H](NC(=O)c1ncc(-c2cnn3ccc(Cl)cc23)s1)c1cc(NS(=O)(=O)C2CC2)ccn1 [I-231, 5-(5-chloropyrazolo[1,5-a]pyridin-3-yl)-N-((1R,2R)-1-(4-(cyclopropanesulfonamido)pyridin-2-yl)-3-hydroxy-2-methylpropyl)thiazole-2-carboxamide]"
4,25 to 50,"CCOc1cncc(-c2cnc(C(=O)N[C@H](c3cc(NS(=O)(=O)C4CC4)ccn3)[C@H]3CCCN3C)s2)n1 [I-116, N-((S)-(4-(cyclopropanesulfonamido)pyridin-2-yl)((R)-1-methylpyrrolidin-2-yl)methyl)-5-(6-ethoxypyrazin-2-yl)thiazole-2-carboxamide]"
5,50 to 100,"CCOc1cncc(-c2cnc(C(=O)N(C)[C@H](c3cc(NS(=O)(=O)C4CC4)ccn3)[C@@H]3CCOC3)s2)n1 [I-64, N-((S)-(4-(cyclopropanesulfonamido)pyridin-2-yl)((S)-tetrahydrofuran-3-yl)methyl)-5-(6-ethoxypyrazin-2-yl)-N-methylthiazole-2-carboxamide]"
6,50 to 100,"CCOc1cncc(-c2ccc(C(=O)N[C@@H](CN3CCOCC3)c3cc(NS(=O)(=O)C4CC4)ccn3)c(F)c2)n1 [I-143, (S)-N-(1-(4-(cyclopropanesulfonamido)pyridin-2-yl)-2-morpholinoethyl)-4-(6-ethoxypyrazin-2-yl)-2-fluorobenzamide]"
7,5 to 25,"O=C(N[C@@H](c1cc(NS(=O)(=O)C2CC2)ccn1)[C@H]1COCCO1)c1ncc(-c2cnn3ccc(Cl)cc23)s1 [I-80, 5-(5-chloropyrazolo[1,5-a]pyridin-3-yl)-N-((S)-(4-(cyclopropanesulfonamido)pyridin-2-yl)((S)-1,4-dioxan-2-yl)methyl)thiazole-2-carboxamide]"
8,5 to 25,"CCOc1cncc(-c2ccc(C(=O)N[C@@H](COC)c3cc(NS(=O)(=O)C4CC4)ccn3)cc2)n1 [I-279, (R)-N-(1-(4-(cyclopropanesulfonamido)pyridin-2-yl)-2-methoxyethyl)-4-(6-ethoxypyrazin-2-yl)benzamide]"
9,50 to 100,"C[C@@H](CN1CCCCC1)[C@H](NC(=O)c1ncc(-c2cnn3ccc(Cl)cc23)s1)c1cc(NS(=O)(=O)C2CC2)ccn1 [I-58, 5-(5-chloropyrazolo[1,5-a]pyridin-3-yl)-N-((1S,2S)-1-(4-(cyclopropanesulfonamido)pyridin-2-yl)-2-methyl-3-(piperidin-1-yl)propyl)thiazole-2-carboxamide]"
10,5 to 25,"O=C(N[C@H](c1ccnc(NS(=O)(=O)C2CC2)n1)[C@@H]1CCOC1)c1ncc(-c2cnn3ccc(Cl)cc23)s1 [I-261, 5-(5-chloropyrazolo[1,5-a]pyridin-3-yl)-N-((S)-(2-(cyclopropanesulfonamido)pyrimidin-4-yl)((S)-tetrahydrofuran-3-yl)methyl)thiazole-2-carboxamide]"
11,25 to 50,"CCOc1cncc(-c2cnc(C(=O)N[C@H](CN3CC[C@@](C)(O)C3)c3cccc(NS(=O)(=O)C(F)F)c3)s2)n1 [I-207, N-((S)-1-(3-((difluoromethyl)sulfonamido)phenyl)-2-((R)-3-hydroxy-3-methylpyrrolidin-1-yl)ethyl)-5-(6-ethoxypyrazin-2-yl)thiazole-2-carboxamide]"
12,25 to 50,"CCOc1cncc(-c2cnc(C(=O)N[C@@H](CN3C[C@H]4COC[C@H]4C3)c3cc(NS(=O)(=O)C4CC4)ccn3)s2)n1 (single isomer, unassigned) [I-30]"
13,25 to 50,"CCOc1cncc(-c2cnc(C(=O)N[C@H](c3cc(NS(=O)(=O)C4CC4)ccn3)C(C)(C)OC)s2)n1 [I-92, (R)-N-(1-(4-(cyclopropanesulfonamido)pyridin-2-yl)-2-methoxy-2-methylpropyl)-5-(6-ethoxypyrazin-2-yl)thiazole-2-carboxamide]"
